ChEMBL document CHEMBL1201862, “PubChem BioAssay data set” (2004)
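Compound exposure: 48 hours, 5 concentrations, 96-well plates. GI50 is the concentration that inhibits growth by half.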 Calls of active or inactive are those of the source. Cut-off read from the data, not from the text of the source: active = GI50 up to about 1.1 µM and inactive = higher.

What was measured:
Test in all cases: growth of human tumour cells (NCI), 48 h
OVCAR-8 = system: OVCAR-8
786-0 = system: 786-0
ACHN = system: ACHN
A549 = system: A549
SW-620 = system: SW-620
HCT-116 = system: HCT-116
LXFL 529 = system: LXFL 529
Malme-3M = system: Malme-3M
HOP-92 = system: HOP-92
MOLT-4 = system: MOLT-4
CAKI-1 = system: CAKI-1
OVCAR-3 = system: OVCAR-3
DLD-1 = system: DLD-1
SF-295 = system: SF-295
K562 = system: K562
IGROV-1 = system: IGROV-1
NCI-H460 = system: NCI-H460
M14 = system: M14
RXF 631 = system: RXF 631
UACC-257 = system: UACC-257
COLO 205 = system: COLO 205
KM-20L2 = system: KM-20L2
RPMI-8226 = system: RPMI-8226
EKVX = system: EKVX
CCRF-CEM = system: CCRF-CEM
SK-MEL-5 = system: SK-MEL-5
DMS-273 = system: DMS-273
SN12C = system: SN12C
TK-10 = system: TK-10
UO-31 = system: UO-31
HOP-18 = system: HOP-18
NCI-H522 = system: NCI-H522
SF-539 = system: SF-539
RXF 393 = system: RXF 393
A498 = system: A498
OVCAR-4 = system: OVCAR-4
SR = system: SR
HCT-15 = system: HCT-15
U-251 = system: U-251
SF-268 = system: SF-268
M19-MEL = system: M19-MEL
HL-60 = system: HL-60
DMS-114 = system: DMS-114
NCI-H226 = system: NCI-H226
KM12 = system: KM12
SK-MEL-2 = system: SK-MEL-2
LOX IMVI = system: LOX IMVI
NCI-H23 = system: NCI-H23
SNB-75 = system: SNB-75
OVCAR-5 = system: OVCAR-5
SK-OV-3 = system: SK-OV-3
SNB-19 = system: SNB-19
UACC-62 = system: UACC-62
XF498 = system: XF498
SK-MEL-28 = system: SK-MEL-28

For `CC(C)(C)OC(=O)N1N=NC2C3CC(=O)C(O3)C21` (stereo not given), the GI50 (OVCAR-8) was 86.1 µM (inactive), the GI50 (786-0) was > 100 µM (inactive) and the GI50 (ACHN) was > 100 µM (inactive). The GI50 (A549) was > 100 µM (inactive), the GI50 (SW-620) was > 100 µM (inactive) and the GI50 (HCT-116) was > 10 µM (inactive). For the same compound, the GI50 (LXFL 529) was > 100 µM (inactive), the GI50 (Malme-3M) was > 100 µM (inactive) and the GI50 (HOP-92) was > 100 µM (inactive). For the same compound, the GI50 (MOLT-4) was > 100 µM (inactive), the GI50 (CAKI-1) was > 100 µM (inactive) and the GI50 (OVCAR-3) was > 100 µM (inactive). The GI50 (DLD-1) was > 100 µM (inactive), the GI50 (SF-295) was > 100 µM (inactive) and the GI50 (K562) was > 100 µM (inactive). The GI50 (IGROV-1) was > 100 µM (inactive), the GI50 (NCI-H460) was > 100 µM (inactive) and the GI50 (M14) was > 100 µM (inactive). The GI50 (RXF 631) was > 100 µM (inactive), the GI50 (UACC-257) was > 10 µM (inactive) and the GI50 (COLO 205) was > 10 µM (inactive). For the same compound, the GI50 (KM-20L2) was > 100 µM (inactive), the GI50 (RPMI-8226) was > 100 µM (inactive) and the GI50 (EKVX) was > 100 µM (inactive). For the same compound, the GI50 (CCRF-CEM) was > 100 µM (inactive), the GI50 (SK-MEL-5) was > 100 µM (inactive) and the GI50 (DMS-273) was > 100 µM (inactive). For the same compound, the GI50 (SN12C) was > 100 µM (inactive), the GI50 (TK-10) was > 100 µM (inactive) and the GI50 (UO-31) was > 100 µM (inactive). The GI50 (HOP-18) was > 100 µM (inactive), the GI50 (NCI-H522) was > 100 µM (inactive) and the GI50 (SF-539) was > 100 µM (inactive). For the same compound, the GI50 (RXF 393) was > 100 µM (inactive), the GI50 (A498) was > 100 µM (inactive) and the GI50 (OVCAR-4) was > 10 µM (inactive). The GI50 (SR) was > 100 µM (inactive).

`CC12OC(=O)C(C#N)C1(C)C1C(=O)CCCC12` (stereo not given) was tested, and the GI50 (OVCAR-8) was > 100 µM (inactive), the GI50 (786-0) was > 100 µM (inactive) and the GI50 (ACHN) was > 100 µM (inactive). For the same compound, the GI50 (A549) was > 100 µM (inactive), the GI50 (HCT-15) was greater than 100 µM and the GI50 (SW-620) was > 100 µM (inactive). The GI50 (HCT-116) was > 100 µM (inactive), the GI50 (U-251) was > 100 µM (inactive) and the GI50 (LXFL 529) was > 100 µM (inactive). The GI50 (SF-268) was > 100 µM (inactive), the GI50 (M19-MEL) was > 100 µM (inactive) and the GI50 (HL-60) was > 100 µM (inactive). The GI50 (DMS-114) was > 100 µM (inactive), the GI50 (Malme-3M) was > 100 µM (inactive) and the GI50 (MOLT-4) was > 100 µM (inactive). For the same compound, the GI50 (OVCAR-3) was > 100 µM (inactive), the GI50 (DLD-1) was > 100 µM (inactive) and the GI50 (NCI-H226) was > 100 µM (inactive). For the same compound, the GI50 (KM12) was > 100 µM (inactive), the GI50 (SF-295) was > 100 µM (inactive) and the GI50 (K562) was > 100 µM (inactive). The GI50 (IGROV-1) was > 100 µM (inactive), the GI50 (NCI-H460) was > 100 µM (inactive) and the GI50 (M14) was > 100 µM (inactive). The GI50 (SK-MEL-2) was > 100 µM (inactive), the GI50 (COLO 205) was > 100 µM (inactive) and the GI50 (LOX IMVI) was > 100 µM (inactive). The GI50 (NCI-H23) was > 100 µM (inactive), the GI50 (KM-20L2) was > 100 µM (inactive) and the GI50 (RPMI-8226) was > 100 µM (inactive). For the same compound, the GI50 (SNB-75) was > 100 µM (inactive), the GI50 (EKVX) was > 100 µM (inactive) and the GI50 (CCRF-CEM) was > 100 µM (inactive). The GI50 (OVCAR-5) was > 100 µM (inactive), the GI50 (SK-MEL-5) was > 100 µM (inactive) and the GI50 (DMS-273) was > 100 µM (inactive). For the same compound, the GI50 (SN12C) was > 100 µM (inactive), the GI50 (SK-OV-3) was > 100 µM (inactive) and the GI50 (TK-10) was > 100 µM (inactive). For the same compound, the GI50 (UO-31) was > 100 µM (inactive), the GI50 (HOP-18) was > 100 µM (inactive) and the GI50 (SF-539) was > 100 µM (inactive). The GI50 (RXF 393) was > 100 µM (inactive), the GI50 (SNB-19) was > 100 µM (inactive) and the GI50 (UACC-62) was > 100 µM (inactive). The GI50 (XF498) was > 100 µM (inactive), the GI50 (OVCAR-4) was > 100 µM (inactive) and the GI50 (SK-MEL-28) was > 100 µM (inactive).
